Drawing on patent US7470664, this text covers ring closure, isolated yield for 2 molecules.

The conditions of this series: 19-membered ring.

The structures appear in SMILES notation. Where two headings read alike, the source gives them in different places.

Molecule `CCCC[C@@H]1NC(=O)OCCCC=Cc2cccc3c2CN(C3)C(=O)O[C@@H]2C[C@@H](C(=O)OC)N(C2)C1=O` registered a ring closure, isolated yield (from C=CCCCOC(=O)N[C@@H](CCCC)C(=O)N1C[C@H](OC(=O)N2Cc3cccc(C=C)c3C2)C[C@H]1C(=O)OC, rcm bond, Zhan catalyst I (RC-301), DCE, 5.5 mM, 100.0 °C) of 79%.

`COC(=O)[C@@H]1C[C@@H]2CN1C(=O)[C@H](C(C)(C)C)NC(=O)OCCCC#Cc1cccc3c1CN(C3)C(=O)O2` returned a ring closure, isolated yield (from COC(=O)[C@@H]1C[C@@H](OC(=O)N2Cc3cccc(C#CCCCOC(=O)N[C@H](C(=O)O)C(C)(C)C)c3C2)C[NH2+]1, amide bond, HATU/Et3N/DMAP, DCM, 42.0 mM, 25.0 °C, 2 steps) of 43%.
